In patent US20240287148A1, “ENGINEERED BIOMOLECULES FOR NUTRIENT REPROGRAMMING” (CORNELL UNIVERSITY, priority 2021, published 2024):
Where a SMILES comes first, the peptide text is derived from it. The star is where a group is joined. Cbz = O=C(OCc1ccccc1)*; CH2F = FC*

Tests used:
[1] = tested on: ATF4; experiment: ATF4 expression in MEF cells (western blotting, RT-qPCR of Atf4); assay type: cell-based, mouse; conditions: for ATF4 induction in cystine-starved cells: cystine deprivation
Method: For cystine and methionine deprivation, the experiment was carried out by incubating cells in DMEM, high glucose, no glutamine, no methionine, no cystine (Thermo Fisher: 21013024) with 10% dialyzed FBS (Sigma Aldrich: F0392). For leucine, histidine, and arginine deprivation, the experiment was carried out by incubating cells in DMEM, high glucose, no arginine, no histidine, no leucine, respectively, (custom prepared by Gibco/Invitrogen) with 10% dialyzed FBS (Sigma Aldrich: F0392). For full amino acid starvation, the experiment was carried out by incubating cells in HBSS buffer (Lonza) with 10% dialyzed FBS (Sigma Aldrich: F0392). Samples were collected at indicated experimental time points.
Following experimental conditions, total RNA was isolated by TRIzol reagent (Invitrogen) and reverse transcription was performed using High-Capacity cDNA Reverse Transcription Kit (Invitrogen). Real-time PCR analysis was conducted using Power SYBR Green PCR Master Mix (Applied Biosystems) and data was generated using a LightCycler 480 Real-Time PCR System (Roche Applied Science). qPCR oligo sequences are listed in Table 4.
(§1) Cells were washed with PBS (Gibco) and then lysed on ice using cell lysis buffer (50 mM Tris [pH7.5], 150 mM NaCl, 1 mM EDTA, 1% Triton X-100, 2 U/ml DNase and protease inhibitor cocktail tablet). The lysates were incubated on ice for 30 min and spun down at 10,000 rpm for 3 mins to collect supernatant. Collected supernatant was measured by protein assay (Bio-Rad: 500-0112) to quantify the protein concentration. Equal amounts of proteins across samples were mixed with SDS-PAGE sample buffer (50 mM Tris [pH6.8], 100 mM dithiothreitol, 2% SDS, 0.1% bromophenol blue, 10% glycerol) and heated for 9 mins at 95° C. Denatured proteins were separated on SDS-PAGE and transferred to PVDF membranes (Fisher). Membranes were blocked in TBS containing 5% non-fat milk and 0.1% Tween-20 for 1 hr. Phospho-proteins were blocked in TBS containing 5% BSA and 0.1% Tween-20 for 1 hr. Blocking was followed by incubation with primary antibodies overnight at 4° C. Membranes were washed using TBST followed by subsequent incubation using horseradish peroxidase-coupled secondary antibodies at room temperature for 1 hr. Immunoblots were washed again using TBST and visualized using enhanced chemiluminescence (ECL-Plus, GE Healthcare).

[2] = tested on: NRF2; experiment: ARE-driven Fluc reporter assay (NRF2 activity) in MEF cells; assay type: cell-based, mouse; conditions: cystine starvation 8 hr, BafilomycinA 50 nM or ConcanamycinA 100 nM
Method: (§2) Firefly luciferase reporters were co-transfected with a Renilla reporter plasmid into MEF cells or CTNS knockdown cells for 4 hrs. Transfected cells were treated with amino acid starvation and/or compound treatment at indicated timepoints. Firefly and Renilla luciferase activities were measured using Dual-Luciferase Reporter Assay System (Promega). Relative values of firefly luciferase activities were normalized to Renilla luciferase control.

[3] = tested on: MEF cells; experiment: Lipid peroxidation measurement (C11-BODIPY, flow cytometry) in MEF cells; assay type: cell-based, mouse; conditions: for lipid oxidation in cystine-starved cells (C11-BODIPY): cystine deprivation 18 hrs, BafA1 50 nM or ConA
Method: Cells were plated in 6-well dishes and followed by indicated treatments. After treatment, cells were incubated with fresh medium containing 2 μM BODIPY 581/591 C11 dye (Invitrogen: D3861) for 15 min. Cells were next collected and washed twice with ice-cold PBS followed by fluorescence-activated cell sorting (FACS) analysis using Thermo Fisher Attune NxT. Fluorescence captured during analysis was gated and plotted using FCS Express 7.

[4] = tested on: MEF cells; experiment: Cell viability assay (ferroptosis) in MEF cells; assay type: cell-based, mouse; conditions: for cell death under cystine restriction (cell viability): Necrostatin 5 μM, Ferrostatin 1 μM
Method: Cells were seeded into 96-well plates at 3,000 cells per well. After 16 hr, cells were subject to conditions of the indicated experiments. Cells were incubated for 24 hr in their experimental conditions and cell viability was measured using the CellTiter-Blue viability assay (Promega) following the manufacturer's instructions. Relative cell viability in the presence of starvation and/or compounds was normalized to the vehicle-treated controls after background subtraction.

[5] = tested on: MEF cells; experiment: Intracellular cysteine and cystine measurement in MEF cells (HPLC); assay type: cell-based, mouse
Method: Cells were grown on 100 mm dishes until 80-90% confluent. Cells were lysed on ice in lysis buffer (50 mM Tris [pH7.5], 150 mM NaCl, 1 mM EDTA, 1% Triton X-100, 2 U/ml DNase and protease inhibitor cocktail tablet), followed by centrifugation at 10,000 rpm for 8 min at 4° C. The supernatant was collected and 100 μL of sample was mixed with 10 μL TCEP (50 mM in borate buffer [pH 7.4]) (Sigma Aldrich) in a vial and incubated at 25° C. for 10 min.
90 μL of a solution containing 1% TCA and 1 mM EDTA was then added. The total solution was centrifuged for 10 min at 10,000 g at 4° C. 100 μL of the obtained supernatant, 20 μL of 10 mM CNBF solution (4-chloro-3,5-dinitrobenzotrifluoride [Sigma Aldrich: 197017]), 20 μL of methanol, and 50 μL of borate buffer (0.2 M [pH 8.0])) were mixed and incubated at 25° C. for 20 min. Derivatization was terminated with 10 μL of 2M HCl followed by HPLC analysis (see below).
Cells were grown on 100 mm dishes until 80-90% confluent. Cells were lysed on ice in lysis buffer (50 mM Tris [pH7.5], 150 mM NaCl, 1 mM EDTA, 1% Triton X-100, 2 U/ml DNase and protease inhibitor cocktail tablet). 100 μL of sample was mixed with 100 μL of 6%5-Sulfosalicylic Acid Dyhydrate solution (Sigma: S3147), followed by centrifugation at 3,000 g for 15 min at 4° C. The supernatant was collected and 25 μL of freshly made derivatizing solution was added. Samples sat at room temperature for 20 mins, followed by rotary evaporation. Dried material was dissolved in 150 μL of phase A solution followed by HPLC analysis (see below).
All resulting solutions for cysteine, glutathione, and cystine were filtered through a 0.22 μm filter membrane (Millipore Corporation, Belfast, MA, USA) and injected into a chromatographic system. High performance liquid chromatography (HPLC) was performed using a LC-20AT pump with a SPD-20AV UV-vis detector monitored at 270 and 220 nm (Shimadzu, Japan) equip with an Ultra Aqueous C18 column (100 Å, 5 μm, 250 mm×4.6 mm; Restek, USA) at a flow rate of 1 mL/min with a mobile phase containing 0.1% trifluoroacetic acid (TFA) in H2O or acetonitrile. Values were normalized to protein concentration by Bradford assay.

[6] = tested on: Atf4 promoter; experiment: Atf4 promoter-driven Fluc reporter assay in MEF cells; assay type: cell-based, mouse; conditions: BafilomycinA 50 nM 8 hrs with or without cystine deprivation
Method: as §2

[7] = tested on: MEF cells; experiment: Cell fractionation and western blotting of MEF cells transfected with CysRx; assay type: cell-based, mouse; conditions: BafilomycinA 50 nM for 12 hrs
Method: as §1
MEF cells were grown in four 15 cm dishes until 80% confluent (˜3×10^8 cells) followed by washing twice with ice-cold PBS. […]

[8] = tested on: UMRC6 tumors; experiment: CysRx treatment of xenografted UMRC6 tumors in mice (tumor growth); assay type: in vivo, mouse; conditions: IKE 10 mg/kg intraperitoneal every other day, 25 days
Method: (§3) Previously established UMRC6 tumors were immediately excised from CO2 euthanized mice and minced using a surgical 10 blade. Approximately […] portions of tumor were bilaterally implanted into 6-8-week-old NSG mice. Animals were monitored for tumor growth and randomized into treatment groups when tumors reached 150-200 mm^3 in size. IKE/vehicle treated animals received intraperitoneal injections every other day (10 mg/kg). CysRx-TT3 treatment was conducted via weekly intratumoral (IT) injections (100 μL) for three weeks. Tumors for IT injections were demarcated into four quadrants and an equal volume (25 μL) of CysRx-TT3 was injected into each quadrant. HiBit-TT3 was injected into the other flank as control. Mice were monitored for tumor growth three times per week using digital calipers. Health and body condition were also monitored concurrently. Animals were sacrificed by CO2 euthanasia (3.5 L/min) one week after final administration or when the body condition started to deteriorate. Tumors were excised from the flank using a surgical 10 blade, weighed and either flash frozen or fixed in 4% PFA.
Magnetic resonance imaging (MRI) of mice was conducted using a 1T M3 compact MRI from Aspect Imaging Ltd. Mice were anesthetized using 2.5% isoflurane and placed onto the specimen arm, coil was then placed around the subject and fixed in place. […]

[9] = Body weight of tumor-bearing mice; assay type: in vivo, mouse; conditions: mice with UMRC6 tumors; IKE 10 mg/kg/2d intraperitoneal; CysRx-TT3 intratumoral
Method: as §3

[10] = MEF cells, cystine deprivation 24 hrs, BafilomycinA 50 nM or ConcanamycinA 100 nM
[11] = MEF cells, 24 hrs cystine deprivation, Z-VAD 20 μM
[12] = BafilomycinA 50 nM for 12 hrs, normalized to protein

O=C1O[C@H]([C@@H](O)CO)C(O)=C1O [ascorbic acid]
ATF4 induction upon cystine starvation ([1]; MEF cells, 8 hrs cystine starvation, Ascorbic Acid 20 μM): little effects | ATF4 expression induced by homocysteic acid (HCA) ([1]; MEF cells, HCA 10 mM, Ascorbic Acid 20 μM): attenuated

C/C=C/[C@H]1O[C@@](O)([C@@H](C)[C@H](O)[C@H](C)[C@H]2OC(=O)/C(OC)=C/C(C)=C/[C@@H](C)[C@@H](O)[C@@H](CC)[C@@H](O)[C@H](C)C/C(C)=C/C=C/[C@@H]2OC)C[C@@H](O[C@H]2C[C@@H](O)[C@H](OC(N)=O)[C@@H](C)O2)[C@@H]1C [ConA, concanamycin A]
NRF2 activation (ARE Fluc reporter) [2]: prevented | lipid oxidation in cystine-starved cells (C11-BODIPY) [3]: significantly reduced | ferroptosis in cystine-starved cells (cell viability) [4, 10]: prevented

COC(=O)C[C@H](NC(=O)[C@H](C)NC(=O)[C@@H](NC(=O)OCc1ccccc1)C(C)C)C(=O)CF [Z-VAD] (Cbz-Val-Ala-Asp(OMe)-CH2F)
cell death under cystine restriction (cell viability) [4, 11]: not | reduced cell viability under full amino acid starvation ([4]; MEF cells, 24 hrs full amino acid starvation, Z-VAD 20 μM): rescued

CCOC(=O)c1ccc(NC2CCCCC2)c(N)c1 [ferrostatin-1]
cell death under cystine restriction (cell viability) [4, 11]: prevented

CO/C1=C\C(C)=C\[C@@H](C)[C@@H](O)[C@@H](C)C/C(C)=C/C=C/[C@H](OC)[C@@H]([C@@H](C)[C@@H](O)[C@H](C)[C@@]2(O)C[C@@H](O)[C@H](C)[C@@H](C(C)C)O2)OC1=O [BafA1, bafilomycin A1]
NRF2 activation (ARE Fluc reporter) [2]: prevented | cysteine level [5, 12]: increase | cystine level [5, 12]: decrease | cytosolic cysteine level in cystine-starved cells ([5]; cystine deprivation, BafilomycinA 50 nM 12 hrs): partially restored | Atf4 promoter-driven Fluc activity (normalized to Renilla) [6]: transcriptional upregulation | ATF4 induction in cystine-starved cells ([1]; MEF cells, BafilomycinA 50 nM 8 hrs, ConcanamycinA 100 nM 12 hrs): greatly potentiated | lipid oxidation in cystine-starved cells (C11-BODIPY) [3]: significantly reduced | ferroptosis in cystine-starved cells (cell viability) [4, 10]: prevented | CysRx level (western blotting) [7]: CysRx accumulation

CC(C)n1cnc2c(NCCc3ccc(O)cc3)nc(-c3csc4ccccc34)nc21 [SR1]
ATF4 induction in cystine-starved cells ([1]; MEF cells, SR1 200 nM or Indirubin 2 μM): significantly reduced | ferroptosis of cystine-starved cells (cell viability) ([4]; MEF cells, cystine deprivation 24 hrs, SR1 200 nM or Indirubin 2 μM): promoted

O=C(O)c1cc(/N=N/c2ccc(S(=O)(=O)Nc3ccccn3)cc2)ccc1O [sulfasalazine]
susceptibility of cells lacking cystinosin (cell viability) ([4]; MEF cells with CTNS knockdown, Erastin 20 μM, Sulfsalazine 200 μM): highly susceptible | ferroptosis (cell viability) ([4]; MEF cells, 24 hrs, Erastin 20 μM, Sulfsalazine 200 μM): induced

CN1C(=O)C(Cc2c[nH]c3ccccc23)NC1=S (stereo not drawn) [necrostatin, necrostatin-1]
cell death under cystine restriction (cell viability) [4, 11]: not

NCCS [cysteamine]
cysteine in the cytosol ([5]; Cysteamine 0.5 mM, 12 hrs): increase | lysosomal cystine level ([5]; Cysteamine 0.5 mM, 12 hrs): readily depleted | ATF4 induction under the cystine rich condition ([1]; MEF cells, Cysteamine 0.5 mM, 12 hrs): pronounced ATF4 induction | lipid oxidation in cystine-starved cells ([3]; cystine deprivation, Cysteamine 0.5 mM for 18 hrs): eliminated | ferroptotic cell death of cells lacking cystinosin ([4]; MEF cells with CTNS knockdown, 24 hrs cystine deprivation, Cysteamine 0.5 mM): rescued | ferroptosis in cystine-starved cells (cell viability) ([4]; MEF cells, cystine deprivation, Cysteamine 0.5 mM for 24 hrs): rescued

O=C(COc1ccc(Cl)cc1)NC1CCC(NC(=O)COc2ccc(Cl)cc2)CC1 (stereo not drawn) [ISRIB]
cystine shortage-induced ATF4 upregulation (western blotting) ([1]; eIF2a(S/S) and eIF2a(A/A) MEF cells, 8 hrs amino acid starvation, ISRIB 100 nM): insensitive

CCCCS(=N)(=O)CCC(N)C(=O)O (stereo not drawn) [BSO, buthionine sulfoximine]
ATF4 expression ([1]; MEF cells, BSO 10 μM, 8 hrs): induced

N[C@@H](CCS(=O)(=O)O)C(=O)O [homocysteic acid]
ATF4 expression ([1]; MEF cells, HCA 10 mM): induced

CC(C)Oc1ccc(C(=O)Cn2ccnc2)cc1-n1c(CN2CCN(C(=O)COc3ccc(Cl)cc3)CC2)nc2ccccc2c1=O [IKE, imidazole ketone erastin]
tumor growth [8]: suppressed | body weight [9]: weight loss

C[C@@H]1C[C@@H]([C@H](O)CC2CC(=O)NC(=O)C2)C(=O)[C@@H](C)C1 [cycloheximide]
intracellular cyst(e)ine levels ([5]; 12 hrs amino acid starvation, Cycloheximide 50 μM): largely restored | ferroptosis induced by erastin and sulfasalazine (cell viability) ([4]; MEF cells, 24 hrs Erastin 20 μM or Sulfsalazine 200 μM, Cycloheximide 50 μM): partially rescued | increased ferroptosis susceptibility under cystine deprivation (cell viability, lipid ROS) ([4]; MEF cells, 24 hrs cystine deprivation, Cycloheximide 50 μM): prevented
